This note sets out measurements from US20130150399A1, “INHIBITORS OF THE UNFOLDED PROTEIN RESPONSE AND METHODS FOR THEIR USE” (The Board of Trustees of the Leland Stanford Junior …, priority 2006, published 2013).

In one assay the test system is HT1080 cells. The experiment in a line: Clonogenic survival (colony formation) assay, HT1080. The assay is classed as cell-based, human. Here is the method:
Several of the candidate irestatins were tested in a hypoxia clonogenic survival assay. […] HT1080 fibrosarcoma cells stably were treated with 1 uM of the indicated irestatin or left untreated, and incubated in hypoxia (0.01% oxygen) for 48 hrs at 37° C. Cells were harvested and counted, and allowed to form colonies under normal oxygen tension. Survival rate is expressed as the fraction of colonies formed divided by the total number of cells seeded for each condition. For all experiments, cells were plated in triplicate, and all experiments were repeated at least three times. These experiments were repeated using MiaPaCa2 cells in place of the HT1080 fibrosarcoma cells.
For hypoxia survival assays, cells were grown in 60 mm dishes until reaching at 50-70% confluence and shifted to hypoxia (0.1% O2) for 48 hrs. Cells were trypsinized, counted using a hemocytometer, and replated in triplicate at 1,000-20,000 cells per plate in normal culture medium. After 10-12 days of growth under normal oxygen conditions, colonies were stained with 0.2% crystal violet in ethanol and counted. Survival values are expressed as the number of colonies divided by the total number of cells seeded for each condition, normalized to the plating efficiency under normal oxygen conditions. At least three independent experiments were performed.
A. Effect of irestatin 9389 on PERK and ATF6 pathways. HT1080 cells were treated with vehicle alone (lanes 1-4) or 2.5 μM irestatin 9389 (lanes 5-8) and cultured under aerobic conditions for 18 hours (N) or shifted to hypoxia for the indicated times. Protein lysates were analyzed by Western blot analysis using antisera specific for ATF6 (top), CHOP/GADD153 (middle) or actin (bottom). […] Cells were harvested, counted, and allowed to grow under normal culture conditions for 11-12 days. […] D. Quantification of clonogenic survival assay. […] F. Quantification of TUNEL-positive cells. […] Cells were harvested at the indicated times and counted by hemocytometer. Values represent the mean calculated from triplicate experiments+/−SEM.

Another assay deals with caspase-3. Put plainly: Cleavage of caspase-3, HT1080 cells. The conditions noted are these: 2.5 μM. The assay is classed as cell-based, human. Here is the method: Cells (2×10^6) were cultured in 10-cm dishes, collected using a cell scraper at 4° C., and lysed by addition of 150 μl cell lysis buffer [50 mM Tris pH 7.4, 150 mM NaCl, 10% glycerol, 0.5% Triton X-100. 0.5% NP-40, 2 mM Na3VO4, 20 mM beta-glycerophosphate, 10 mM NaF, 1 mM DTT, 1 mM PMSF). Lysates were centrifuged for 5 min at 10,000×g, and proteins (˜40 μg) were resolved by SDS-PAGE followed by semi-dry transfer to nitrocellulose membranes. Membranes were blocked in TBS-5% milk supplemented with 0.1% Tween-20. The blots were then probed overnight with relevant antibodies, washed, and incubated for 2 hours with species-specific secondary antibodies conjugated to horseradish peroxidase. After washing in block solution, immunoreactive material was detected by enhanced chemiluminescence (SuperSignal West Dura Extended, Pierce, Inc., Rockville, Ill.).
A. Effect of irestatin 9389 on PERK and ATF6 pathways. […] Protein lysates were analyzed by Western blot analysis using antisera specific for ATF6 (top), CHOP/GADD153 (middle) or actin (bottom). […] Cells were harvested, counted, and allowed to grow under normal culture conditions for 11-12 days. […] D. Quantification of clonogenic survival assay. […] F. Quantification of TUNEL-positive cells. […] Cells were harvested at the indicated times and counted by hemocytometer. Values represent the mean calculated from triplicate experiments+/−SEM. […]

Molecules are shown by their SMILES.

For `Cc1csc(NC(=O)CSc2nc3c(c(C(F)(F)F)c2C#N)CCC3)n1` [Compound 9389], the colony formation result in the assay with HT1080 cells (2.5 μM, hypoxia for 48 hours) is “strongly inhibited colony formation”. For the same compound, in the assay on HT1080 cells (2.5 μM, normal oxygen conditions), the “survival of HT1080 cells (colony formation)” value was “negligible effect on the survival”. For the same compound, the “decrease in the rate of colony formation” value in the assay with HT1080 cells (exposure during hours 40-48 of hypoxia, data not shown) came out at 8 fold. In addition, the “cleavage of caspase-3” value in the assay with caspase-3 (36 hours of hypoxia) is “stimulated cleavage of caspase-3”. Also, the caspase-3 processing result in the assay with caspase-3 (normal oxygen conditions) was “no effect on caspase-3 processing”.
